From US12551478B2, “Quinoline derivative having indoleamine-2,3-dioxygenase inhibitory activity” (SHENZHEN CHIPSCREEN BIOSCIENCES CO., LTD., priority 2018, dated 2026)
Several values for one entry are separate records, joined by “and”; a condition that tells them apart may be missing. Identical values can stand only once.

Columns and labels:
IDO in HeLa cell = biological target: T1, IDO in HeLa cell (Homo sapiens, UniProt P14902); assay: Inhibition of IDO enzyme activity in HeLa cells by Chidamide in combination with IDO inhibitor; assay type: cell-based; conditions: IFN-γ, 48 hours
T1 construct: 50 ng/ml cytokine human IFN-γ and drugs with different concentrations; endogenous in cells; host or cells: HeLa cells stimulated with human IFN-γ
Protocol: HeLa cells were digested by trypsin, collected and counted, then inoculated in a 96-well cell culture plate at 2×10^4 cells per well and cultured at 5% CO2 and 37° C. After the cells were inoculated overnight, the medium was replaced with 200 μM L-tryptophan phenol red-free DMEM medium, and 50 ng/ml cytokine human IFN-γ and drugs with different concentrations (administered according to the group and final concentration shown in FIG. 1) were added simultaneously, the vehicle control (DMSO) and cytokine-free and L-tryptophan negative control wells were set at the same time, and triplicate wells were set. After 48 hours of drug treatment, 200 μL of the supernatant from culture well was pipetted out, added with 40 μL of pre-prepared 30% (w/v) trichloroacetic acid solution, reacted at 65° C. for 20 minutes, and then centrifuged at 12000 rpm for 15 minutes. 100 μL of the supernatant was pipetted out and added into a 96-well flat bottom plate, then equal volume of 2% p-dimethylaminobenzaldehyde in glacial acetic acid was added and mixed well, and stood at room temperature for 10 minutes. The absorbance value of each well at wavelength of 492 nm was read with microplate reader (ELX800NB). After subtracting the cell-free medium OD492-BLK as a blank control from the reading of each well, the OD492-T of each dosing well with subtraction of the detection background and the […] of drug-free positive control well were obtained.
The relative enzyme activity inhibition rate against IDO of each dosing well cell was calculated according to the following formula: enzyme activity inhibition rate against IDO=(OD492−T0−OD492−T)/OD492−T0×100%

CT-26 tumor [1] = assay: Efficacy experiment on Balb/c mouse CT-26 tumor model; assay type: in vivo; conditions: method similar to Example 93
CT-26 tumor [2] = assay: as above; assay type: in vivo; conditions: for average tumor weight: Example 93, FIG. 6: tumors stripped after last administration on 17th day, vehicle group 2.7 g; for Relative tumor inhibition rate (%): Example 93: Chidamide 25 mg/kg, Example 3 20 mg/kg, intragastric once per day, 17 days, tumor volume vs vehicle control
Protocol: CT-26 cells were subjected to multiplication culture and kept in a logarithmic growth state. After the number of cells met the requirement, the cells were digested with trypsin and collected, washed sufficiently with a large amount of PBS twice to remove trypsin and serum components, centrifuged at room temperature and 800 rpm for 10 minutes, and the supernatant was discarded. The cells were resuspended in FBS-free DMEM medium and adjusted to reach a cell concentration of 3×10^7/mL.
Under aseptic condition, the cell suspension was injected into subcutaneous of back of […] at a dose of 100 μL/needle, one injection per Balb/c mouse. During the injection, 1 mL disposable medical syringe was used to ensure that the position and direction for inserting needle to each mouse was basically the same.
Eight days after cell inoculation, the tumor grew to an average volume of about 100 mm^3. The tumor-bearing mice were randomly divided into four groups (9 mice in each group), namely the vehicle control group, the chidamide group (25 mg/kg, intragastric administration, once per day), Example 3 group (20 mg/kg, intragastric administration, once per day), and the combination of Chidamide and Example 3 group, and then the mice were raised in cages after labeling, the mice was administered according to groups and observed for tumor formation every day. The body weight of each mouse was weighted before administration, and the dose was calculated according to per kilogram of body weight, that was, 10 μL of CMC-Na solution per gram of body weight for the vehicle control group, 10 μL of 2.5 mg/mL Chidamide-CMC-Na suspension per gram of body weight for the chidamide group (25 mg/kg), 10 μL of 2 mg/mL the compound of Example 3-CMC-Na suspension per gram of body weight for the Example 3 group (20 mg/kg), and 10 μL of CMC-Na suspension containing 2.5 mg/ml chidamide and 2 mg/ml the compound of Example 3 per gram of body weight for the combination group were administered intragastrically. The longest diameter of tumor (length) and the widest diameter (width) perpendicular thereto were measured by vernier caliper every 2 days, and the tumor volume was calculated by the formula TS=length×(width)^2/2 and recorded. Each mouse was intragastrically administered once per day at regular time; after the last administration on the 17th day, the mice were sacrificed and the tumors of tumor-bearing mice were stripped and weighed with […].
The relative tumor inhibition rate of each administration group was calculated according to the following formula: Relative tumor inhibition rate=(average tumor volume of the vehicle control group−average tumor volume of the administration group)/average tumor volume of the vehicle control group×100%

[3] = biological target: T2, human indoleamine 2,3-dioxygenase 1 (hIDO1) (Homo sapiens, UniProt P14902); assay: Inhibitory activity test at cellular level: IFN-γ-induced HeLa cells, kynurenine colour reaction; assay type: cell-based; conditions: 48 hours; for inhibition at 0.1 µM: 50 ng/ml human IFN-γ, 200 μM L-tryptophan, each test compound 100 nM, read-out: hIDO1-cell base inhibition rate (%); for EC50: human IFN-γ, read-out: hIDO1-cell base EC50
T2 construct: up-regulate the expression of endogenous IDO1 under the induction of human IFN-γ; endogenous in cells; host or cells: HeLa cells stimulated with human IFN-γ
Text: The subject of this assay was to comprehensively evaluate different compounds on their enzymatic inhibitory activity in vitro and on cell models against human indoleamine 2,3-dioxygenase 1 (hIDO1).
In the present application, the inventors used Hela cells expressing IDO1 induced by IFN-γ as a model, to test the IDO1 inhibitory activity of the compounds at the cellular level.
HeLa cells are human cervical cancer cell lines, which can up-regulate the expression of endogenous IDO1 under the induction of human IFN-γ. By adding the substrate L-tryptophan to cell culture medium, the enzymatic catalysis product kynurenine in cell supernatant was detected. In this experiment, the cultured Hela cells were used and co-incubated with different concentrations of test compounds under stimulation of human IFN-γ for a specified period of time, and the color reaction method of enzyme product and p-dimethylaminobenzaldehyde was used to detect the effect on IDO enzyme activity of cells treated by the test compounds.
(1) Hela cells were inoculated into 96-well culture plates at an appropriate concentration (about 20,000 cells/well). […] The cells were continuously cultured for 48 hours before detection.
(2) 200 μL of the supernatant in the culture well was pipetted out, added with 40 μL of the pre-prepared 30% (w/v) trichloroacetic acid solution, and reacted at 65° C. for 20 minutes, and then centrifuged at 12000 rpm for 15 minutes.
(3) 100 μL of the supernatant after centrifugation was pipetted out, added into a 96-well flat bottom plate, then added with an equal volume of 2% p-dimethylaminobenzaldehyde in glacial acetic acid and mixed well, and stood at room temperature for 10 minutes.
(4) microplate reader (ELX800NB) was used to detect the absorbance value of each well, and the detection wavelength was 492 nm.
In addition, after the cell enzyme activity inhibition rates of test compounds with different concentration gradients were separately calculated, their cell enzyme activity half inhibition concentrations (EC50) were calculated by using EC50 calculator.
According to the above-mentioned experimental method, the compounds of the present application were subjected to IDO1 enzymatic evaluation at cytological level (the concentration of each test compound was all 100 nM).
According to the above-mentioned experimental method, the compound of the present application was subjected to hIDO1-cell base EC50 detection.

hERG potassium channel = biological target: T3, hERG potassium channel (Homo sapiens, UniProt Q12809); assay: hERG inhibitory activity assay (patch clamp method), HEK293 cells stably expressing hERG; assay type: cell-based; conditions: whole-cell patch clamp, HEK293, 0.3-30 μM, room temperature; read-out: hERG inhibition EC50 value
T3 construct: expressed in transfected cells
Text: Non-cardiac drugs may cause the prolongation of myocardial action potential duration by inhibiting the hERG (IKr) channel, increasing the possibility of life-threatening torsade de pointes (TdP) ventricular arrhythmia. In this experiment, HEK293 cell line without endogenous IKr current was used as host cell (this cell line was widely used in the detection of hERG) to evaluate the cardiotoxicity of Example 85 in patent CN108203438A and Example 87 of the present application.
(1) HEK293 cell line stably expressing hERG potassium channel was cultured in DMEM medium containing 10% fetal bovine serum and 0.8 mg/mL G418 under the condition of 37° C. and 5% CO2. […]
A capillary glass tube was drawn into a recording electrode with a microelectrode puller. […] Then, slow capacitance compensation was performed, and the membrane capacitance and series resistance were recorded. […]
When the hERG current of the whole-cell recording was stabilized, the drug was administered. […] The current detected for each cell in the compound-free extracellular fluid was used as its own control group. […]
[formula] and then the inhibition rate corresponding to each concentration was calculated
[formula] For each concentration, mean number and standard error were calculated, and the following equation was used to calculate the half inhibitory concentration of each compound: […]

[4] = Example 89, Table 3: chidamide and Example 3 alone and in combination, concentrations per FIG. 1
[5] = Example 90, Table 4: chidamide and Example 20 alone and in combination, FIG. 2
[6] = Example 91, Table 5: chidamide and Example 72 alone and in combination, FIG. 3
[7] = Example 92, Table 6: chidamide and Example 87 alone and in combination, FIG. 4
[8] = Example 94, Table 8: chidamide and Example 20 alone and in combination
[9] = Example 95, Table 9: chidamide and Example 72 alone and in combination
[10] = Example 96, Table 10: chidamide and Example 87 alone and in combination

T2 sequence (P14902 whole entry): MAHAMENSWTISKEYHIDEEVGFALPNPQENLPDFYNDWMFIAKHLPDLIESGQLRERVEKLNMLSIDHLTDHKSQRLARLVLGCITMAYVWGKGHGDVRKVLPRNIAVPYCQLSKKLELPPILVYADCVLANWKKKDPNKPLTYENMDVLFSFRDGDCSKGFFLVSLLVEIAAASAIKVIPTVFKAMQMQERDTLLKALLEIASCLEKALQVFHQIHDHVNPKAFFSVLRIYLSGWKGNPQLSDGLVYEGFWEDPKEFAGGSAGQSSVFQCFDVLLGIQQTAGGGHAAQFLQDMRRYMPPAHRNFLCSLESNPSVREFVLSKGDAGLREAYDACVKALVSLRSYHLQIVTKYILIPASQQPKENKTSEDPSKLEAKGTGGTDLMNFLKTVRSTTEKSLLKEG
T1 sequence (P14902 whole entry): as above
T3 sequence (Q12809 whole entry): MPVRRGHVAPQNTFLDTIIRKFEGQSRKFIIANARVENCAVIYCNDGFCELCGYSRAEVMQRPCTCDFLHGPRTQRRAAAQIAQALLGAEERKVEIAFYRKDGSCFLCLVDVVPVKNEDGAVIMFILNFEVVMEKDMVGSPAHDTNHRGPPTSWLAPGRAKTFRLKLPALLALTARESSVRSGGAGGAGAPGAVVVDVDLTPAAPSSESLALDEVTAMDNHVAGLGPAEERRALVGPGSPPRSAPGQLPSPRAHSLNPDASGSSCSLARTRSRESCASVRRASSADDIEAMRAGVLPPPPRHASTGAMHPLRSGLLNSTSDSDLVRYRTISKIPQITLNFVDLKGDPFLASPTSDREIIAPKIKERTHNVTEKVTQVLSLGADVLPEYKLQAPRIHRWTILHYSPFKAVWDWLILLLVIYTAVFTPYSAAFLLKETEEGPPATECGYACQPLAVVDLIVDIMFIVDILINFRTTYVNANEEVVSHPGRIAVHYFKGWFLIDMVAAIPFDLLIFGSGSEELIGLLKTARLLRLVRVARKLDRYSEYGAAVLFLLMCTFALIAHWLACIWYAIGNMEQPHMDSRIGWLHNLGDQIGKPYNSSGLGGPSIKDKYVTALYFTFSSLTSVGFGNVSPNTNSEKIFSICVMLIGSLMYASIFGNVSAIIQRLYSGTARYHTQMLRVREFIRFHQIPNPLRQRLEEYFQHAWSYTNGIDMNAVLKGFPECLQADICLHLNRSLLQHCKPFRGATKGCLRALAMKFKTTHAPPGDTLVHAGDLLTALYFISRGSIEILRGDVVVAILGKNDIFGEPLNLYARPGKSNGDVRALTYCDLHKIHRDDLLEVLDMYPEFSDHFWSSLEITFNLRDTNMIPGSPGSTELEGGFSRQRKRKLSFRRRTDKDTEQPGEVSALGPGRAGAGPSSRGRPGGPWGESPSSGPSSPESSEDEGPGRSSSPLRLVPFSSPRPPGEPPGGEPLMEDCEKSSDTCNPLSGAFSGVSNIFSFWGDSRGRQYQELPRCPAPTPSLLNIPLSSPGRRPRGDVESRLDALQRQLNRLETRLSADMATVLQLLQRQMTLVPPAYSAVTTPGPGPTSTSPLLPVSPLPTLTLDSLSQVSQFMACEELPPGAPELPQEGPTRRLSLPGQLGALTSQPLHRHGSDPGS

| Average inhibition rate (%) against IDO (IDO in HeLa cell; [4]) [%] | Average inhibition rate (%) against IDO (IDO in HeLa cell; [5]) [%] | Average inhibition rate (%) against IDO (IDO in HeLa cell; [6]) [%] | Average inhibition rate (%) against IDO (IDO in HeLa cell; [7]) [%] | inhibition at 0.1 µM [3] [%] | EC50 [3] [nM] | SMILES | Relative tumor inhibition rate (%) (CT-26 tumor [1]; [8]) | Relative tumor inhibition rate (%) (CT-26 tumor [1]; [9]) | Relative tumor inhibition rate (%) (CT-26 tumor [1]; [10]) | average tumor weight (CT-26 tumor [2]) [g] | Relative tumor inhibition rate (%) (CT-26 tumor [2]) | EC50 (hERG potassium channel) [nM] |
| --- | --- | --- | --- | --- | --- | --- | --- | --- | --- | --- | --- | --- |
| 24 | 22 | 23 | 23 |  |  | Nc1cc(F)ccc1NC(=O)c1ccc(CNC(=O)/C=C/c2cccnc2)cc1 [Chidamide, reference compound] | 30 | 25.4 | 55 | 1.6 | 33% and 33.6% |  |
|  |  |  | 20 | 23 |  | O=C(CNc1ccc2c(c1)OCO2)N1CCC(C(O)CC2c3c(F)cccc3-c3cncn32)CC1 (centres unmarked) [Example 87, 2-(benzo[d][1,3]dioxol-5-yl-amino)-1-(4-(2-(6-fluoro-5H-imidazo[5,1-a)isoindol-5-yl)-1-hydroxyethyl)piperidin-1-yl)ethyl-1-one] |  |  | 45 |  |  | 4600 |
| 31 |  |  |  | 90 | 14 | O=C(Nc1ccc(Cl)cc1)N1CC2(CC(Oc3ccnc4ccc(F)cc34)C2)C1 [Example 3, N-(4-chlorophenyl)-6-((6-fluoroquinolin-4-yl)oxy)-2-aza-spiro[3.3]heptan-2-carboxamide] |  |  |  | 2.3 | 20% and 20.1% |  |
|  |  | 36 |  | 88 | 8 | CC(C(=O)Nc1ccc(Cl)cc1)N1CC2C(C1)C2Nc1ccnc2ccc(F)cc12 (centres unmarked) [Example 72, 2-(6-((6-fluoroquinolin-4-yl)amino)-3-aza-bicyclo[3.1.0]hexan-3-yl)-N-(4-chlorophenyl)propionamide] |  | 7.6 |  |  |  |  |
|  | 16 |  |  | 64 | 46 | O=C(Nc1ccc2c(c1)OCO2)N1CC2(CC(Oc3ccnc4ccc(F)cc34)C2)C1 [Example 20, N-(benzo[d][1,3]dioxol-5-yl)-6-((6-fluoroquinolin-4-yl)oxy)-2-aza-spiro[3.3]heptan-2-carboxamide] | 8.3 |  |  |  |  |  |
